# pIC50: −log10 of the molar value. Active and inactive are the calls of the source. No rule for the calls is given here.
# Target: Protein artemis (Homo sapiens) (UniProt Q96SD1)
# Assay: IC50 of Artemis nuclease activity blockers – biochemical, fluorescence intensity, dose response (AID 720701)
# Settings: Recombinant Artemis endonuclease
# Protein artemis (Homo sapiens), sequence (Q96SD1 whole entry, looked up): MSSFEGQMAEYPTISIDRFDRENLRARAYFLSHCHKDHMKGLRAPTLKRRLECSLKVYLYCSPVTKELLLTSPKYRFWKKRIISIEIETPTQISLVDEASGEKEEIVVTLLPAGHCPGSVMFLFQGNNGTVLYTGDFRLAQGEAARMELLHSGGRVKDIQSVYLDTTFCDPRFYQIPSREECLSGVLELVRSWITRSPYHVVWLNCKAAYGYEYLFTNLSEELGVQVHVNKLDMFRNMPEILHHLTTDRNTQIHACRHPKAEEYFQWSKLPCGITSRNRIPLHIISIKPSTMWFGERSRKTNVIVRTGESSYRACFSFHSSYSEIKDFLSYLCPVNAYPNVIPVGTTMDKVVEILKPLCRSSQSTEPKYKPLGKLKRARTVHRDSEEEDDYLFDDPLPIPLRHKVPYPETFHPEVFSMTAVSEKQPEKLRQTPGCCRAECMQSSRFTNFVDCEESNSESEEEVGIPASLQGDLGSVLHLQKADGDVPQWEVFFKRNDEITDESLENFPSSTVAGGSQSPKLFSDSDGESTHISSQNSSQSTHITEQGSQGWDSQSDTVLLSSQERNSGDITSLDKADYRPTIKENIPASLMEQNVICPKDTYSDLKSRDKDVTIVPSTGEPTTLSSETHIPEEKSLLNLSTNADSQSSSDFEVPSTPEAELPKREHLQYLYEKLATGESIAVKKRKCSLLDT
SMILES,pIC50,IC50
Nc1[nH]n2c(=O)c3c(nc2c1N=Nc1ccc(Cl)cc1)CCCC3,4.79,
CN1/C(=N\O)c2cccc3cccc1c23,,> 20 µM (inactive)
C/C(=N\O)c1ccccc1C(=O)O,5.44,
Oc1ccc2ccccc2c1C=NC12CN3CCN(CN(C3)C1)C2,5.44,
COc1ccc(C(=O)c2c(C(F)(F)F)oc3c2C(=O)c2ccccc2C3=O)cc1OC,,> 20 µM (inactive)
COc1ccc(Nc2nc(NCc3ccco3)nc(N/N=C/c3ccccc3)n2)cc1,5.58,
COc1cccc(/C=N/Nc2nc(Nc3ccccc3)nc(-n3nc(C)cc3C)n2)c1O,5.82,
CCN(CC)c1ccc(/C=N/Nc2nc3ccccc3[nH]2)c(O)c1,4.81,
O=c1c2ccccc2nc(N/N=C/c2c(O)ccc3ccccc23)n1O,5.33,
COc1cccc(N=Nc2c(N)[nH]n3c(=O)cc(-c4ccccc4)nc23)c1,4.79,
COc1ccc(O)c(/C=N/Nc2nc(Nc3ccccc3)nc(-n3nc(C)cc3C)n2)c1,5.65,
N#CC1=C(N)Oc2n[nH]c(-c3cccs3)c2C1c1ccoc1 (stereo unspecified),,> 20 µM (inactive)
CCCCCCCCC/C(=N\O)c1ccccn1,4.96,
Cc1nnc(-c2ccccc2)c(=O)n1/N=C/c1c(O)ccc2ccccc12,,> 20 µM (inactive)
O=C(CCCSc1ccccc1)Nc1nc(-c2ccccn2)cs1,5.02,
Cc1cc(C)n(-c2nc(Nc3ccccc3C(F)(F)F)nc(-n3nc(C)cc3C)n2)n1,5.30,

# Reference: PubChem BioAssay AID720701 (Sanford-Burnham Center for Chemical Genomics, 2013)
